Structures can show the parent of a compound that is named as a salt.
Key:
Type in all cases: biochemical
[1] = target: Nitric oxide synthase (neuronal, human recombinant) nNOS (Homo sapiens (Human), UniProt P29475); assay: Human nNOS enzyme assay ([3H]-L-arginine to L-citrulline conversion); conditions: for Selectivity eNOS/nNOS: ratio of human eNOS IC50 to human nNOS IC50; for IC50: recombinant human nNOS
Description: (§1) nNOS (Human), eNOS (Human) and iNOS (Human) Enzyme Assay
(§2) Primary stock solutions of test compounds at a concentration of 6 mM were prepared from the 2 to 5 mg powder. The primary stock solutions of each test compound were prepared freshly in distilled water on the day of study to obtain a final concentration of 6 mM. For determination of IC50 values, 12 test compound concentrations were prepared as 3-fold serial dilutions. Concentration range of test compound utilized for nNOS were 0.001 to 300 μM and for eNOS were 0.003 to 1000 μM. The vehicle of the test compound or inhibitor was used as blank control. For non-specific activity, 100 μM L-NMMA was used. Runs using the IC50 concentration of L-NAME were done in parallel as controls.
(§3) All incubations are performed in duplicate
(§4) The reaction mixture was prepared on ice by adding the following components with a micropipette to a polypropylene microcentrifuge tube: • 10 μL of test compound, inhibitor or control (vehicle or L-NMMA) solution; • 25 μL of Reaction Buffer {25 mM Tris-HCl, 0.6 μM BH4, 0.2 μM FMN, 0.2 μM FAD}; • 5 μL of 10 mM NADPH solution {1 mM} (freshly prepared in 10 mM Tris-HCl (pH 7.4); • 5 μL of 6 mM CaCl2 {600 W}; • 5 μL of 1 mM Calmodulin {100 W}; and • 5 μL of 0.02 μg/μL nNOS or 0.12 μg/μL eNOS.
(§5) The above reaction mixture was pre-incubated at room temperature for 15 mins.
(§6) The reaction was started by the addition of the substrate (in 5 μL containing 1 μCi of [^3H]-L-Arginine+2.5 μM of unlabeled L-Arginine) to the reaction mixture. Total reaction volume is 60 μL.
(§7) The reaction was mixed using a vortex mixer and incubate the above reaction mixture at 37° C. in an incubator for 30 minutes.
(§8) To stop the reaction, 400 μL of ice-cold Stop Buffer was added at the end of the incubation period.
(§9) The reaction was then mixed using a vortex mixer, and the reaction samples were transferred to spin cups, which were centrifuged using a microcentrifuge, at 13,000 rpm for 30 sec. at room temperature.
(§10) The spin cups were removed from the holder, 450 μL of eluate (containing the unbound L-citrulline) were transferred to scintillation vials. 3 mL of scintillation fluid were added and the radioactivity was quantified in a liquid scintillation counter.
(§11) Data was analyzed using a Sigmoidal dose-response (variable slope) curve to determine the IC50 value of the test compound. Y=Bottom+(Top−Bottom)/(1+10^((Log IC50−X)*Hill Slope))

[2] = target: Recombinant human inducible NOS (iNOS) (Homo sapiens (Human), UniProt P35228); assay: Human iNOS enzyme assay (Protocol 1 or Protocol 2, radiometric)
Description: The human iNOS assay was carried by either one of the two protocols as described herein:
Recombinant human inducible NOS (iNOS) was produced in Baculovirus-infected Sf9 cells (ALEXIS). In a radiometric method, NO synthase activity was determined by measuring the conversion of [^3H]L-arginine to [^3H]L-citrulline. To measure iNOS, 10 μL of enzyme was added to 100 μL of 100 mM HEPES, pH=7.4, containing 1 mM CaCl2, 1 mM EDTA, 1 mM dithiothreitol, 1 μM FMN, 1 μM FAD, 10 μM tetrahydrobiopterin, 120 μM NADPH, and 100 nM CaM.
To measure enzyme inhibition, a 15 μL solution of a test substance was added to the enzyme assay solution, followed by a pre-incubation time of 15 min at RT. The reaction was initiated by addition of 20 μL L-arginine containing 0.25 μCi of [^3H] arginine/mL and 24 μM L-arginine. The total volume of the reaction mixture was 150 μL in every well. The reactions were carried out at 37° C. for 45 minutes, The reaction was stopped by adding 20 μL of ice-cold buffer containing 100 mM HEPES, 3 mM EGTA, 3 mM EDTA, pH=5.5. [^3H]L-citrulline was separated by DOWEX (ion-exchange resin DOWEX 50 W×8-400, SIGMA) and the DOWEX was removed by spinning at 12,000 g for 10 min in the centrifuge. An aliquot (70 μL) of the supernatant was added to 100 μL of scintillation fluid, and the samples were counted in a liquid scintillation counter (1450 Microbeta Jet, Wallac). Specific NOS activity was reported as the difference between the activity recovered from the test solution and that observed in a control sample containing 240 mM of the inhibitor L-NMMA. All assays were performed at least in duplicate. Standard deviations are 10% or less.
Primary stock solutions of each test compound were prepared in distilled water on the day of study to obtain a final concentration of 6 mM. For the determination of IC50 values, 11 test compound concentrations were prepared as 3-fold serial dilutions. Test compounds were tested in the iNOS assay at a concentration of 1000 μM to 0.0169 μM. The vehicle of the test compound or inhibitor, distilled water, was used as blank control. For non-specific activity, 100 μM L-NMMA was run in parallel as a control.
All incubations were performed in duplicate
The reaction mixture was prepared on ice by the addition of the following components to the appropriate well of a 1.0 mL 96-well polypropylene plate:
10 μL of test compound, reference inhibitor, or control (vehicle or L-NMMA) solution;
25 μL of Reaction Buffer (50 mM Tris-HCl, 6 μM BH4, 2 μM FMN, 2 μM FAD);
5 μL of 10 mM NADPH solution;
5 μL of 1 μM Calmodulin; and
The reaction mixture was pre-incubated at room temperature for 15 minutes. Following this pre-incubation, the reaction was initiated by the addition of 5 μL of the substrate L-arginine (1 μCi of [^3H]-L-Arginine+30 μM of unlabeled L-Arginine) to the reaction mixture. The total reaction volume was 60 μL. The assay plate containing the reaction mixtures was sealed and incubated at 37° C. for 30 minutes. At the end of this incubation period, 400 μL of ice-cold Stop Buffer (the EDTA in the Stop Buffer chelates all of the available calcium) was added to each well to stop the reaction. 100 μL of equilibrated resin pH 5.5 was added to each of the assay wells. The reaction samples were vortexed and transferred to spin cups, after-which they were centrifuged at 13,000 rpm for 30 sec. The spin cups were removed from the holder and […] (containing the unbound L-citrulline) were added to the appropriate wells of a 96-well liquid scintillation plate. 175 μL of scintillation fluid were also added to each well. The plate was sealed, and radioactivity was quantitated using a Microbeta liquid scintillation counter.
Data were analyzed using a Sigmoidal dose-response (variable slope) curve to determine the IC50 value of the test compound. Y=Bottom+(Top−Bottom)/(1+10^((Log IC50−X)*Hill Slope))

[3] = target: Nitric oxide synthase (endothelial, human recombinant) eNOS (Homo sapiens (Human), UniProt P29474); assay: Human eNOS enzyme assay ([3H]-L-arginine to L-citrulline conversion)
Description: as §1, §2, §3, §4, §5, §6, §7, §8, §9, §10, §11

SMILES | Selectivity eNOS/nNOS [1] | IC50 [2] | IC50 [1] | IC50 [3]
CN1CCCC1CCN1C(=O)COc2cc(NC(=N)c3cccs3)ccc21 (centres unmarked) [Compound 1] | 41.9 | – | – | –
CN1CCCC1CCN1CCOc2cc(NC(=N)c3cccs3)ccc21 (centres unmarked) [Compound 2] | 25.3 | – | – | –
N=C(Nc1ccc2c(c1)OCC(=O)N2CCN1CCCC1)c1cccs1 [Compound 3, N-(3-oxo-4-(2-(pyrrolidin-1-yl)ethyl)-3,4-dihydro-2H-benzo[b][1,4]oxazin-7-yl)thiophene-2-carboximidamide] | 16.2 | 1.5 µM | 0.85 µM | 13.8 µM
N=C(Nc1ccc2c(c1)OCCN2CCN1CCCC1)c1cccs1 [Compound 4, N-(4-(2-(pyrrolidin-1-yl)ethyl)-3,4-dihydro-2H-benzo[b][1,4]oxazin-7-yl)thiophene-2-carboximidamide] | 61.2 | 2.7 µM | 0.41 µM | 25.1 µM
CN(C)CCN1C(=O)COc2cc(NC(=N)c3cccs3)ccc21 [Compound 5, N-(4-(2-(Dimethylamino)ethyl)-3-oxo-3,4-dihydro-2H-benzo[b][1,4]oxazin-7-yl)thiophene-2-carboximidamide] | 25.5 | > 100 µM | 1.84 µM | 47 µM
CN(C)CCN1CCOc2cc(NC(=N)c3cccs3)ccc21 [Compound 6, N-(4-(2-(dimethylamino)ethyl)-3,4-dihydro-2H-benzo[b][1,4]oxazin-7-yl)thiophene-2-carboximidamide] | 208.5 | 10.9 µM | 0.2 µM | 41.7 µM
CCNCCN1CCOc2cc(NC(=N)c3cccs3)ccc21 [Compound 7, N-(4-(2-(ethylamino)ethyl)-3,4-dihydro-2H-benzo[b][1,4]oxazin-7-yl)thiophene-2-carboximidamide dihydrochloride] | 9.8 | > 100 µM | 1.06 µM | 10.4 µM
CNCCN1CCOc2ccc(NC(=N)c3cccs3)cc21 [Compound 10, N-(4-(2-(methylamino)ethyl)-3,4-dihydro-2H-benzo[b][1,4]oxazin-6-yl)-thiophene-2-carboximidamide dihydrochloride] | 47.7 | 3.74 µM | 0.08 µM | 3.82 µM
CN(CCN1CCSc2cc(NC(=N)c3cccs3)ccc21)CC(=O)O [Compound 17, 2-(methyl(2-(7-(thiophene-2-carboximidamido)-2H-benzo[b][1,4]thiazin-4(3H)-yl)ethyl)amino)acetic acid dihydrochloride] | 9.3 | 241 µM | 1.16 µM | 10.9 µM
N=C(Nc1ccc2c(c1)SCCN2CCN1CCC[C@H]1C(=O)O)c1cccs1 [Compound 18, (S)-1-(2-(7-(Thiophene-2-carboximidamido)-2H-benzo[b][1,4]thiazin-4(3H)-yl)ethyl)pyrrolidine-2-carboxylic acid dihydrochloride] | 19 | 341 µM | 0.66 µM | 12.6 µM

Results, then the compound that gave them:

Selectivity eNOS/nNOS [1] | IC50 [2] | IC50 [1] | IC50 [3] | SMILES
182.5 | 7.25 µM | 0.2 µM | 36.5 µM | CN(C)CCN1CCOc2ccc(NC(=N)c3cccs3)cc21 [Compound 9, N-(4-(2-(dimethylamino)ethyl)-3,4-dihydro-2H-benzo[b][1,4]oxazin-6-yl)-thiophene-2-carboximidamide]
101.6 | 117 µM | 0.24 µM | 24.4 µM | N=C(Nc1ccc2c(c1)SCCN2CCN1CCCC1)c1cccs1 [Compound 11, N-(4-(2-(pyrrolidin-1-yl)ethyl)-3,4-dihydro-2H-benzo[b][1,4]thiazin-7-yl)thiophene-2-carboximidamide]
159.1 | 62.9 µM | 0.12 µM | 19.1 µM | CN(C)CCN1CCSc2cc(NC(=N)c3cccs3)ccc21 [Compound 12, N-(4-(2-(Dimethylamino)ethyl)-3,4-dihydro-2H-benzo[b][1,4]thiazin-7-yl)thiophene-2-carboximidamide dihydrochloride]
52.2 | 33.1 µM | 0.19 µM | 9.92 µM | CN1CCCC1CCN1CCSc2cc(NC(=N)c3cccs3)ccc21 (centres unmarked) [Compound 13, N-(4-(2-(1-methylpyrrolidin-2-yl)ethyl)-3,4-dihydro-2H-benzo[b][1,4]thiazin-7-yl)thiophene-2-carboximidamide]
82.1 | 172 µM | 0.14 µM | 11.5 µM | N=C(Nc1ccc2c(c1)SCCN2CCN1CCCCC1)c1cccs1 [Compound 14, N-(4-(2-(Piperidin-1-yl)ethyl)-3,4-dihydro-2H-benzo[b][1,4]thiazin-7-yl)thiophene-2-carboximidamide]
134 | 40.7 µM | 0.15 µM | 20.1 µM | CCN(CC)CCN1CCSc2cc(NC(=N)c3cccs3)ccc21 [Compound 15, N-(4-(2-(Diethylamino)ethyl)-3,4-dihydro-2H-benzo[b][1,4]thiazin-7-yl)thiophene-2-carboximidamide]
205 | 58.7 µM | 0.034 µM | 7 µM | N=C(Nc1ccc2c(c1)SCCN2CCNCCO)c1cccs1 [Compound 16, N-(4-(2-(2-hydroxyethylamino)ethyl)-3,4-dihydro-2H-benzo[b][1,4]thiazin-7-yl)thiophene-2-carboximidamide dihydrochloride]
